*1 amine or outer side, *2 acyl side, *3 side chain or, on linkers, in order; H or OH if unused. Where a SMILES comes first, the peptide text is derived from it. Bridges are numbered along the chain shown (N, C = ends). [ ]: non-standard residue; d: D form. The star is where a group is joined. Orn(4R-OH,5R-OCH2CH2NMe3+) = C[N+](C)(C)CCO[C@@H](N[*:3])[C@H](O)C[C@H](N[*:1])C(=O)[*:2]; pTerphenylCO(4''-OnC5H11) = CCCCCOc1ccc(-c2ccc(-c3ccc(C(=O)*)cc3)cc2)cc1; hTyr(3S-OH,4S-OH) = N[C@H](C(=O)O)[C@H](O)[C@@H](O)c1ccc(O)cc1; Pro(3S-OH,4S-Me) = C[C@H]1CN[C@H](C(=O)O)[C@H]1O; Hyp = O=C(O)[C@@H]1C[C@@H](O)CN1
Columns and labels:
[1] = Rat excretion/mass balance of [14C]-rezafungin; assay type: in vivo, Sprague-Dawley rats; conditions: LSC; for Radioactivity recovered in feces: mean
Method: (§1) (i) Rat study design. The study used 12 male Sprague-Dawley rats, each administered a bolus IV injection into the tail vein over approximately 3–4 min of 15 mg/kg of rezafungin (with a target radioactivity of 200 μCi/kg of [^14C]-rezafungin). Three of the rats were bile duct cannulated. Whole blood/plasma, urine, feces/bile, and cage washings were collected at periodic intervals from noncannulated rats until euthanization at 336 h postdose and from bile duct cannulated rats until euthanization at 120 h postdose as that was the duration that the patency of bile duct cannulae could be maintained. Carcasses were collected at the time of euthanization. All samples were analyzed for drug-derived radioactivity by liquid scintillation counting.
(§2) (iii) Sample analysis. Whole blood and fecal homogenates were combusted prior to analysis by liquid scintillation counting (LSC). Blood, plasma, bile, urine, cage rinse/wash, and fecal homogenate samples were mixed with scintillation fluid and analyzed for radioactivity by LSC. Rat carcasses were dissolved in potassium hydroxide, and the resulting digests were mixed with scintillation fluid and analyzed for radioactivity by LSC.

[2] = Monkey excretion/mass balance of [14C]-rezafungin; assay type: in vivo, cynomolgus monkeys
Method: (§3) (ii) Monkey study design. The study used 3 male cynomolgus monkeys, each administered a single 10 mg/kg IV dose of [^14C]-rezafungin (with a target radioactivity of 100 μCi/kg of [^14C]-rezafungin) by infusion into a saphenous vein over 20 min. Whole blood and plasma samples were collected at each of the following time points: predose, 0.5, 2, 4, 8, 24, 48, 96 120, 144, 168, 240, 480, 720, and 1440 h postdose. Urine, feces, and cage washings were collected at predose (urine/feces only) and daily 24-h collections for 30 days.
as §2

[3] = Human excretion/mass balance of [14C]-rezafungin; assay type: in vivo
Method: (§4) (i) Study design. This was an open-label, phase I, single-dose mass balance study. The study was conducted at Labcorp (formerly, Covance, Inc.; Madison, WI) in accordance with good clinical practice, including ICH guidelines and applicable regulatory requirements, and in general conformity with the Declaration of Helsinki. No animal work was conducted by Labcorp. All pertinent study documents were reviewed by the Institutional Review Board (IRB) prior to study initiation. Following IRB approval and collection of written informed consent, all the subjects underwent an initial screening assessment within 28 days of the first dose. Safety was assessed by vital signs, physical examinations, AE assessments, laboratory tests (chemistry, hematology, and urinalysis), and a 12-lead electrocardiogram.
Subjects were initially confined in the clinical research unit (CRU) for 17 days postdose and returned for two follow-up visits (days 29 and 60). Recovery of radioactivity was estimated by linear interpolation during the period of time subjects were away from the CRU. Blood samples, urine, and feces were collected at specified times over 60 days.
(ii) Sample analysis. Whole blood, plasma, urine, and fecal homogenate samples were mixed with scintillation fluid and analyzed by liquid scintillation counting. For non-radiolabeled rezafungin concentration determination, a bioanalytical method was validated for measuring rezafungin in human plasma that is similar to one previously reported for animal plasma ([16]). Samples were analyzed using a 100 μl aliquot volume and a protein-precipitation extraction procedure followed by liquid chromatography/tandem mass spectrometry (LC-MS/MS) analysis. Chromatography was carried out on a Waters Atlantis HPLC column (dC18, 2.1 × 50 mm, 5 μm) operating under reverse-phase gradient conditions (0.1% formic acid in water/0.1% formic acid in acetonitrile/tetrahydrofuran ramped from 55%/45%/0% to 5%/0%/95%). Rezafungin calibration range was 10.0 ng/ml to 10,000 ng/ml using isotopically-labeled d9-rezafungin as an internal standard. An AB-Sciex API 4000 mass spectrometer was operated in the multiple reaction monitoring mode (parent-to-product ion transition) under optimized conditions for detection of rezafungin (m/z 604.5 to 343.3 Da) and d9-rezafungin (m/z 609.5 to 343.3 Da) positive ions formed by electrospray ionization. Excellent intra- and inter-assay accuracy and precision, as measured by quality control (QC) samples, was obtained during validation. Across the range of QC samples tested (lower limit of quantitation, LLOQ, through the High QC range), the intra-assay accuracy (% bias from nominal) ranged from −1.4% to 7.0% with the intra-assay precision (% coefficient of variation) ranging from 1.6% to 7.4%. Inter-assay accuracy ranged from 0.3% to 4.3% with the inter-assay precision ranging from 2.7% to 5%.

[4] = Clinical safety in the human mass balance study; assay type: in vivo; conditions: single IV 400-mg infusion
Method: as §4

[5] = Rat metabolite profiling (LC-MS with radioactivity detection); assay type: in vivo, Sprague-Dawley rats; conditions: pooled samples, IV 15 mg/kg
Method: as §1
(§5) (iv) Metabolite profiling. The metabolite identification and urine profiling were achieved using pooled samples by equal percent weight of samples (urine, bile, feces) or by equal volume (50 μl) aliquots of each plasma sample across all time points/intervals. The urine, plasma, bile, and fecal samples were analyzed using liquid chromatography tandem mass spectrometry (LC-MS) coupled with a radioactivity flow-through detector for metabolite profiling and identification. Tandem MS experiments were performed, and the structures of the metabolites were proposed based on their MS/MS spectra. The proposed structures were confirmed by comparison of the retention times and product ion spectra with the authentic reference standards when possible.

[6] = Monkey metabolite profiling (LC-MS with radioactivity detection); assay type: in vivo, cynomolgus monkeys; conditions: pooled samples, IV 10 mg/kg
Method: as §3, §5

[7] = Rat blood and plasma radioactivity pharmacokinetics; assay type: in vivo, Sprague-Dawley rats; conditions: IV [14C]-rezafungin 15 mg/kg, mean plasma concentrations
Method: as §1, §2

[8] = cited from earlier work
Text: All three of the previously approved echinocandins (caspofungin, micafungin, and anidulafungin) are believed to undergo spontaneous chemical (non-enzymatic) degradation to a ring-opened peptide as their primary clearance mechanism ([18]). […] While protein binding is generally considered a factor in evaluation of half-life, rezafungin and the ...

[9] = bile duct cannulated rats, IV 15 mg/kg, until 120 h postdose, average
[10] = intact rats, IV 15 mg/kg, through 336 h postdose, average
[11] = monkeys, 10 mg/kg IV, through 720 h postdose
[12] = of the estimated total through day 60

In the case of `CCCCCOc1ccc(-c2ccc(-c3ccc(C(=O)N[C@H]4C[C@@H](O)[C@@H](OCC[N+](C)(C)C)NC(=O)[C@@H]5[C@@H](O)[C@@H](C)CN5C(=O)[C@H]([C@@H](C)O)NC(=O)[C@H]([C@H](O)[C@@H](O)c5ccc(O)cc5)NC(=O)[C@@H]5C[C@@H](O)CN5C(=O)[C@H]([C@@H](C)O)NC4=O)cc3)cc2)cc1` [rezafungin] ({pTerphenylCO(4''-OnC5H11)}-[Orn(4R-OH,5R-OCH2CH2NMe3+)]T[Hyp][hTyr(3S-OH,4S-OH)]T[Pro(3S-OH,4S-Me)]; lactam 1-C), the “Radioactivity recovered in feces” value ([1]; bile duct cannulated rats (n = 3), single IV 15 mg/kg, until 120 h postdose) is reported as 35 % of the administered dose, the “Radioactivity recovered in the carcass” value ([1]; bile duct cannulated rats, IV 15 mg/kg, euthanized at 120 h postdose, average) is reported as 30 % of the administered dose and the “Average total recovery of radioactivity” value ([1]; bile duct cannulated rats, IV 15 mg/kg, until 120 h postdose) is reported as 98 % of the administered dose. The “Radioactivity recovered in bile” value [1, 9] was 17 % of the administered dose, the “Radioactivity recovered in cage residues” value [1, 9] was 1.2 % of the administered dose and the “Radioactivity recovered in feces” value ([1]; intact (non-bile duct cannulated) male rats, single IV bolus 15 mg/kg (200 μCi/kg), through 336 h postdose) was 70 % of the administered dose. The “Radioactivity recovered in the carcass” value ([1]; intact rats, IV 15 mg/kg, at 336 h postdose, average) was 7.9 % of the administered dose, the “Radioactivity recovered in cage residues” value [1, 10] was 2.5 % of the administered dose and the “Radioactivity recovered in urine” value [1, 10] was 14 % of the administered dose. For the same molecule, the “Average total recovery of radioactivity” value ([2]; 3 male monkeys, single 10 mg/kg IV 20-min infusion (100 μCi/kg), at 168 h (1 week) postdose, LSC) was 47.02 % of the dose, the “Radioactivity recovered in feces” value ([2]; monkeys, 10 mg/kg IV, at 720 h postdose) was 60 % of the administered dose and the “Mean total recovery of radioactivity” value ([2]; monkeys, 10 mg/kg IV, through 360 h postdose) was 65 % of the dose. For the same molecule, the “Radioactivity recovered in cage residue” value [2, 11] was 4.3 % of the administered dose, the “Radioactivity recovered in urine” value [2, 11] was 9.7 % of the administered dose and the “Share of the total recovered radioactivity found in feces” value [3, 12] was “Approximately 73%”. For the same molecule, the “Share of the total recovered radioactivity found in urine” value [3, 12] was 27%, the “Cumulative recovery of radioactivity from excreta” value ([3]; single 400-mg IV infusion, through the first 17 days (in-clinic), LSC, mean) was 52% and the “Estimated mean overall recovery of the dose” value ([3]; through day 60, linear interpolation with day 29 and day 60 visits) was 88.3%. The “Cumulative recovery of radioactivity in feces” value ([3]; through the first 17 days) was 38%, the “Cumulative recovery of radioactivity in urine” value ([3]; through the first 17 days) was 14% and the “Treatment-emergent adverse events (TEAEs) reported, total number” value ([4]; 9 healthy male subjects) was 13. The “Deaths, SAEs” value ([4]; 9 subjects) was “no deaths or other SAEs”, the “Laboratory assessments, vital signs, ECGs, physical examinations” value ([4]; 9 subjects) was “no clinically relevant treatment-related findings” and the “Severe TEAEs” value ([4]; 9 subjects) was “no severe TEAEs”. For the same molecule, the “Subjects with diarrhea (most common TEAE)” value ([4]; of 9 subjects) was “two”, the “Radioactive component in feces and bile” value ([5]; rat feces and bile) was “predominant radioactive component” and the “Share of total plasma radioactivity exposure” value ([5]; rat plasma, LC-MS with radio-detection) was 56%. For the same molecule, the “Share of total recovered radioactivity in feces” value ([6]; monkey feces) was 35%, the “Share of total plasma radioactivity exposure” value ([6]; monkey plasma, LC-MS with radio-detection) was 74% and the “t1/2 of plasma total radioactivity” value [7] was 54 h. For the same molecule, the Protein binding [8] was 97.4%.

From publication PMC8765310, “Metabolism, Excretion, and Mass Balance of [^14C]-Rezafungin in Animals and Humans” (Antimicrobial Agents and Chemotherapy, 2022)
